Results published in patent US5126265A, “AB-021 antibiotics and process for producing them” (Presidenza del Consiglio dei Ministri-Ufficio del Ministro …, priority 1988, dated 1992).

What follows are compounds tested on Streptomyces sp. NCIB 40068 (assay: Resistance of the producing strain (Table B)). Details: producing strain Streptomyces sp. NCIB 40068.
Assay type: cell-based

Compound | Resistance to (antimicrobial) [ppm]
CN(C)C1C(=O)C(C(N)=O)=C(O)C2(O)C(=O)C3=C(O)c4c(O)cccc4C(C)(O)C3C(O)C12 (stereo not drawn) [Oxytetracycline] | 8
Lysozyme | 10
CO[C@H]1/C=C/O[C@@]2(C)Oc3c(C)c(O)c4c(O)c(c(/C=N/N5CCN(C)CC5)c(O)c4c3C2=O)NC(=O)/C(C)=C\C=C\[C@H](C)[C@H](O)[C@@H](C)[C@@H](O)[C@@H](C)[C@H](OC(C)=O)[C@@H]1C [Rifampicin] | 2
